# Experimental data as given in patent publication US20240285615A1, “MEDICAMENTS COMPRISING GLYCOSIDASE INHIBITORS” (priority 2021, published 2024).
# What was measured:
# [1] = test system: patients with probable PSP Richardson's syndrome; assay: Phase 2 clinical trial, dose extension (Example 7); type: in vivo, human; details: 300 mg, 150 mg or 75 mg TID PO
# Method: The study design of this Example 7 is analogous to the study described in Example 6, a randomized, multi-centre, double-blind, placebo-controlled trial to study the safety and tolerability of compound (I) in patients with probable PSP Richardson's syndrome. Approximately 40 patients (40 to 85 years of age, inclusive) are randomized in a 2:1:1:1 ratio to 300 mg or 150 mg or 75 mg or placebo TID PO, with or without food.
# [2] = test system: acute glaucoma-induced I/R injury; assay: In vivo treatment efficacy on acute glaucoma induced ischemia-reperfusion (I/R) model; set-up: species or system Sprague-Dawley (SD) rats; details: SD rats, oral, 7 days after I/R injury
# Method: The efficacy of compound of formula (I) is evaluated in the acute glaucoma animal model. Eight-week-old male Sprague-Dawley (SD) rats weighing 250 to 300 g are housed in a temperature- and humidity-controlled animal room under a 12-hour light/12-hour dark cycle, with food and water provided ad libitum. Before any experiment, animals are allowed for one week of acclimatization. The SD rats are randomly allocated to control group and/or treatment groups. Compound of formula (I) is administrated by oral (gavage) route. Two protocols are considered, where the treatment is initiated 24 hours before or 1 hour after the induction of acute glaucoma-induced I/R injury.
# To induce I/R injury, a general anesthesia is induced via i.p. injection of a mixture of 50 mg/kg of ketamine and 2 mg/kg of xylazine. Corneal analgesia is administered using a drop of topical 0.5% proparacaine hydrochloride ophthalmic solution, and pupillary dilatation is maintained with 0.5% tropicamide and 0.5% phenylephrine. After analgesia and dilation of the pupil, the anterior chamber of the left eye is cannulated with a 30-gauge needle connected to a saline reservoir at 150 cm above the eye, leading to a high intraocular pressure (IOP) of 110 mm Hg. The presence of retinal ischemia is examined by the fundus. The cannulation is lasting 60 minutes. After removing the infusion needle from the anterior chamber, the IOP returns to normal. Antibiotic ophthalmic gel with tobramycin is topically applied to the eye before and after the procedure. The rats are sacrificed 7 days after I/R injury to observe the long-term effect of the compound of formula (I) treatment. After collection, the thickness of the retinas is examined by histological staining (Mayer P, (1896), Mitt. zool. Stn. Neapel., 12, 303). The number of retinal ganglion cells is also quantified by immunohistochemistry. Finally, the function of the retina is also evaluated 7 days after I/R injury by electroretinography (ERG).
# [3] = Phase 1 Part 1a: single rising oral doses, fasted, plasma pharmacokinetics; type: in vivo, human; details: for AUC(0-inf) / Cmax / Tmax / half-life: human, plasma
# From the text: A Randomized, Double-Blind, Placebo-Controlled, Phase 1 Study to Assess the Safety, Tolerability, Pharmacokinetics and Food Effect of Single and Multiple Doses of Orally Administered Compound of Formula (I) in Healthy Adult and Elderly Subjects The study was a single-centre, randomized, placebo-controlled single- and multiple ascending dose study in healthy male and female (no childbearing potential) volunteers aged 18-80 years. Study objectives were safety, tolerability, food effect and pharmacokinetics. Following identification of safe and tolerable single doses in healthy male subjects aged 18-55 years, separate cohorts were dosed to assess food effect. Furthermore, multiple-dose safety, tolerability, pharmacokinetics, CSF drug levels and pharmacodynamics were assessed in elderly (age 55-80 years) male or healthy non-child-bearing potential female volunteers. [table] The single-dose pharmacokinetics of seven, ascending, dose levels of compound of Formula (I) (20, 40, 80, 160, 300, 600 and 1000 mg of compound (I) fasted state) were evaluated in part 1a of a randomized, placebo-controlled, time lagged, parallel/crossover group study in healthy young volunteers Compound (I) pharmacokinetic data were measured in plasma and in urine up to 72 hours post dose.
# [4] = Phase 1 Part 1b: food effect, single 300 mg dose fasted/fed, plasma pharmacokinetics; type: in vivo, human; details: for Tmax / AUC(0-inf) / Cmax / half-life: human, plasma; for AUC(0-inf) / Cmax / half-life: arithmetic mean
# Method: The study was a single-centre, randomized, placebo-controlled single- and multiple ascending dose study in healthy male and female (no childbearing potential) volunteers aged 18-80 years. Study objectives were safety, tolerability, food effect and pharmacokinetics. Following identification of safe and tolerable single doses in healthy male subjects aged 18-55 years, separate cohorts were dosed to assess food effect. Furthermore, multiple-dose safety, tolerability, pharmacokinetics, CSF drug levels and pharmacodynamics were assessed in elderly (age 55-80 years) male or healthy non-child-bearing potential female volunteers. [table]
# [5] = single oral dose 20 mg, fasted, healthy male subjects, arithmetic mean
# [6] = single oral dose 40 mg, fasted, healthy male subjects, arithmetic mean
# [7] = single oral dose 80 mg, fasted, healthy male subjects, arithmetic mean
# [8] = single oral dose 160 mg, fasted, healthy male subjects, arithmetic mean
# [9] = single oral dose 300 mg, fasted, healthy male subjects, arithmetic mean
# [10] = single oral dose 600 mg, fasted, healthy male subjects, arithmetic mean
# [11] = single oral dose 1000 mg, fasted, healthy male subjects, arithmetic mean
# [12] = po, single oral dose 300 mg, fasted condition, healthy elderly subjects
# [13] = po, single oral dose 300 mg, fed condition, healthy elderly subjects
smiles,measurement,setting,value
CC(=O)Nc1nnc(N2CCN([C@@H](C)c3ccc4c(c3)OCO4)CC2)s1 [Compound (I)],"efficacy, safety and tolerability of the preferred dosage regimen",[1],"especially effective, safe and well tolerated"
same,number of retinal ganglion cells by immunohistochemistry,[2],increase number of retinal ganglion cells
same,retinal function by electroretinography,[2],improving retinal function
same,thickness of the retina by H&E staining,[2],mitigating the reduction of thickness of the retina
same,deviation of dose normalized AUC,"[3]; AUC over 24 hours, dose levels 300, 600 and 1000 mg",≤ 10%
same,AUC(0-inf),[3]; [5],473 ng·h/mL
same,Cmax,[3]; [5],227 ng/mL
same,Tmax,"[3]; single oral dose 20 mg, fasted, healthy male subjects, median (min, max), read-out: Tmax",0.5 h
same,AUC(0-inf),[3]; [6],1160 ng·h/mL
same,Cmax,[3]; [6],468 ng/mL
same,Tmax,"[3]; single oral dose 40 mg, fasted, healthy male subjects, median (min, max), read-out: Tmax",1 h
same,AUC(0-inf),[3]; [7],3270 ng·h/mL
same,Cmax,[3]; [7],1370 ng/mL
same,Tmax,"[3]; single oral dose 80 mg, fasted, healthy male subjects, median (min, max), read-out: Tmax",0.5 h
same,AUC(0-inf),[3]; [8],7010 ng·h/mL
same,Cmax,[3]; [8],1880 ng/mL
same,Tmax,"[3]; single oral dose 160 mg, fasted, healthy male subjects, median (min, max), read-out: Tmax",1.5 h
same,AUC(0-inf),[3]; [9],15400 ng·h/mL
same,Cmax,[3]; [9],3990 ng/mL
same,Tmax,"[3]; single oral dose 300 mg, fasted, healthy male subjects, median (min, max), read-out: Tmax",1.25 h
same,AUC(0-inf),[3]; [10],33300 ng·h/mL
same,Cmax,[3]; [10],7180 ng/mL
same,Tmax,"[3]; single oral dose 600 mg, fasted, healthy male subjects, median (min, max), read-out: Tmax",1.25 h
same,AUC(0-inf),[3]; [11],50200 ng·h/mL
same,Cmax,[3]; [11],10100 ng/mL
same,Tmax,"[3]; single oral dose 1000 mg, fasted, healthy male subjects, median (min, max), read-out: Tmax",1.5 h
same,half-life,"[3]; male, oral, single dose 20 to 1000 mg, read-out: terminal half-life (t½), range of means at the different dose levels",3.9 to 10.7 h
same,half-life,"[3]; male, oral, single dose 20 mg to 1000 mg, read-out: mean terminal half-life, range over the 7 dose levels",4.59 to 8.84 h
same,Tmax,"[3]; male, oral, single dose 20 mg to 1000 mg, read-out: median Tmax, range over dose levels",0.5 to 1.5 h
same,half-life,"[3]; male, po, 20 mg, single oral dose 20 mg, fasted, healthy male subjects, arithmetic mean, read-out: t1/2 (converted)",4.59 h
same,half-life,"[3]; male, po, 40 mg, single oral dose 40 mg, fasted, healthy male subjects, arithmetic mean, read-out: t1/2 (converted)",5.95 h
same,half-life,"[3]; male, po, 80 mg, single oral dose 80 mg, fasted, healthy male subjects, arithmetic mean, read-out: t1/2 (converted)",8.84 h
same,half-life,"[3]; male, po, 160 mg, single oral dose 160 mg, fasted, healthy male subjects, arithmetic mean, read-out: t1/2 (converted)",6.83 h
same,half-life,"[3]; male, po, 300 mg, single oral dose 300 mg, fasted, healthy male subjects, arithmetic mean, read-out: t1/2 (converted)",7.95 h
same,half-life,"[3]; male, po, 600 mg, single oral dose 600 mg, fasted, healthy male subjects, arithmetic mean, read-out: t1/2 (converted)",6.07 h
same,half-life,"[3]; male, po, 1000 mg, single oral dose 1000 mg, fasted, healthy male subjects, arithmetic mean, read-out: t1/2 (converted)",6.6 h
same,dose proportionality of Cmax,"[3]; single dose, dosing range 20 mg to 1000 mg",Dose proportionality was observed
same,dose proportionality of AUCs,"[3]; single dose, dosing range 300 mg to 1000 mg",Dose proportionality was observed
same,"overall exposure via AUC0-t and AUC0-inf, fed versus fasted",[4],comparable
same,"difference of exposure (AUC) and Cmax, healthy elderly versus healthy young cohort",[4]; fasted state,15%
same,Cmax in fed state as share of Cmax in fasted state,[4]; healthy elderly subjects,about 60%
same,delay of absorption in fed state,[4]; healthy elderly subjects,approximately 3 hours
same,exposure (AUC) in fed state as share of exposure in fasted state,[4]; healthy elderly subjects,approximately 90%
same,Tmax,"[4]; oral, fasted condition, read-out: median Tmax",1 h
same,Tmax,"[4]; oral, with high-fat, high-calorie meal, read-out: median Tmax",4 h
same,AUC(0-inf),[4]; [12],17100 ng·h/mL
same,Cmax,[4]; [12],4160 ng/mL
same,half-life,[4]; [12],7.27 h
same,Tmax,"[4]; po, single oral dose 300 mg, fasted condition, healthy elderly subjects, median (min, max), read-out: Tmax",1 h
same,AUC(0-inf),[4]; [13],15100 ng·h/mL
same,Cmax,[4]; [13],2410 ng/mL
same,half-life,[4]; [13],7.06 h
same,Tmax,"[4]; po, single oral dose 300 mg, fed condition, healthy elderly subjects, median (min, max), read-out: Tmax",4 h
